SMILES strings stand for the structures. Converted amounts (≈) assume the structure as drawn.

The results in this text go back to ChEMBL document CHEMBL5113463, “Discovery and preclinical evaluations of JBD0131, a novel nitrodihydro-imidazooxazole anti-tuberculosis agent” (Bioorg Med Chem Lett, 2022).

Series [1] in a line: Metabolic stability in mouse liver microsomes assessed as half life. The series is classed as ADME, Microsome.
A short description of series [2]: Metabolic stability in rat liver microsomes assessed as half life. The series is classed as ADME, Microsome.
The subject of series [3] is Mycobacterium tuberculosis. Description: Antimycobacterial activity against Mycobacterium tuberculosis H37Rv assessed as bacterial growth inhibition incubated for 7 days by MABA assay. The series is classed as functional. The settings on record: 168 h, time 7 day. In general terms: The colour change of resazurin is a common sign of viable cells or microbes.
Series [4] deals with Mycobacterium tuberculosis. Description: Antimycobacterial activity against Mycobacterium tuberculosis H37Rv assessed as bacterial growth inhibition incubated for 10 days under hypoxic condition followed by 28 hrs incubation under normoxic condition by Low-Oxygen-Recovery Assay. The class given is functional. The settings on record: 264 h, time 11 day.
Series [5] is described as follows: Cytotoxicity against African green monkey vero cells assessed as reduction in cell viability. The class given is toxicity, cell-based. The settings on record: chlorocebus sabaeus.
The nature of series [6]: Metabolic stability in human liver microsomes assessed as half life. The series is classed as ADME, Microsome. A general note: Liver microsomes are a subcellular fraction often used to study metabolism.
Series [7] can be described thus: Cmax in CD-1 mouse at 5 mg/kg, po. The series is classed as ADME, organism-based. The settings on record: in vivo. On the set-up: dose 5 mg/kg, route po.
Series [8] is described as follows: AUC (0-last) in CD-1 mouse at 5 mg/kg, po. The settings on record: in vivo. The series is classed as ADME, organism-based. On the set-up: dose 5 mg/kg, route po.
Series [9] in a line: Half life in CD-1 mouse at 0.6 mg/kg, iv. The series is classed as ADME, organism-based. The settings on record: in vivo.
Series [10] can be described thus: Volume of distribution in CD-1 mouse at 0.6 mg/kg, iv. The series is classed as ADME, organism-based. The settings on record: in vivo.
Series [11] is described as follows: Oral bioavailability in CD-1 mouse at 5 mg/kg. The series is classed as ADME, organism-based. The settings on record: in vivo.
Series [12] can be described thus: Clearance in CD-1 mouse at 0.6 mg/kg, iv. The class given is ADME, organism-based. The settings on record: in vivo.
The target in a further series is T1, Cytochrome P450 1A2 (Homo sapiens, UniProt P05177).
T1 sequence (P05177 whole entry): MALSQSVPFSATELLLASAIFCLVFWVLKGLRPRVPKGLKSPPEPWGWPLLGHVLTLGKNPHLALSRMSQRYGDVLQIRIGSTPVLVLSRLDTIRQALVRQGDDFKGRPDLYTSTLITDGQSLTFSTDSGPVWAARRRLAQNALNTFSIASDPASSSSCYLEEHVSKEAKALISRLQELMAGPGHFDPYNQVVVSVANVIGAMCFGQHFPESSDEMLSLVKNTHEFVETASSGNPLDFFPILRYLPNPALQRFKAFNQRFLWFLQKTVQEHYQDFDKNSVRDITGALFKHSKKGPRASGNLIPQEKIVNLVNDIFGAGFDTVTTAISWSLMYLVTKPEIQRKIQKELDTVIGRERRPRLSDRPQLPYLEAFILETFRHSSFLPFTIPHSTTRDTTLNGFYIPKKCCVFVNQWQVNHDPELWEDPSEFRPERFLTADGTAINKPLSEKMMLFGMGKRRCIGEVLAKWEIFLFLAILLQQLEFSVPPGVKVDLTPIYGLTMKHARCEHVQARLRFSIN
Description: Inhibition of CYP1A2 (unknown origin). The series is classed as ADME.

Series [13] relates to Mycobacterium tuberculosis. Description: In vivo antimycobacterial activity against Mycobacterium tuberculosis Erdman infected mouse acute tuberculosis infection model assessed as reduction lung bacterial loads by measuring CFU at 10 to 100 mg/kg for 3 weeks at 5 days/week. The series is classed as functional, organism-based. The settings on record: dose 10-100 mg/kg, DDE = dose-dependent effect.

The next series deals with Cytochrome P450 2C9 (Homo sapiens, UniProt P11712). Description: Inhibition of CYP2C9 (unknown origin). The class given is ADME.
Chain of Cytochrome P450 2C9 (P11712 whole entry): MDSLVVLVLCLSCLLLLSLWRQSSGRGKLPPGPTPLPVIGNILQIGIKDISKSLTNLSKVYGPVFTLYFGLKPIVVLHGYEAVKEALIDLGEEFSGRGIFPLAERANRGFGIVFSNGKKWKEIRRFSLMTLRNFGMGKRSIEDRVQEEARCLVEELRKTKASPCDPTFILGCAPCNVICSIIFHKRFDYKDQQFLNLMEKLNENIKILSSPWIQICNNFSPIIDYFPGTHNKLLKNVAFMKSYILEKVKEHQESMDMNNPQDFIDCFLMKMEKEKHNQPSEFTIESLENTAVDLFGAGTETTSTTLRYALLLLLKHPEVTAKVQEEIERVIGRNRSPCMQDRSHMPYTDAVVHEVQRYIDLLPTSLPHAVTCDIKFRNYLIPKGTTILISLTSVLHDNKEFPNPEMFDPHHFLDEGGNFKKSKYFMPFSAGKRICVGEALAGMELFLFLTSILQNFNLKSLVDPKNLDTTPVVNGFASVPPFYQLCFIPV
The subject of series [14] is Mycobacterium tuberculosis. Description: Antimycobacterial activity against clinical isolate drug susceptible Mycobacterium tuberculosis H37Rv assessed as bacterial growth inhibition. The class given is functional.
Another series concerns the target T2, Cytochrome P450 2B6 (Homo sapiens, UniProt P20813).
T2 sequence (P20813 whole entry): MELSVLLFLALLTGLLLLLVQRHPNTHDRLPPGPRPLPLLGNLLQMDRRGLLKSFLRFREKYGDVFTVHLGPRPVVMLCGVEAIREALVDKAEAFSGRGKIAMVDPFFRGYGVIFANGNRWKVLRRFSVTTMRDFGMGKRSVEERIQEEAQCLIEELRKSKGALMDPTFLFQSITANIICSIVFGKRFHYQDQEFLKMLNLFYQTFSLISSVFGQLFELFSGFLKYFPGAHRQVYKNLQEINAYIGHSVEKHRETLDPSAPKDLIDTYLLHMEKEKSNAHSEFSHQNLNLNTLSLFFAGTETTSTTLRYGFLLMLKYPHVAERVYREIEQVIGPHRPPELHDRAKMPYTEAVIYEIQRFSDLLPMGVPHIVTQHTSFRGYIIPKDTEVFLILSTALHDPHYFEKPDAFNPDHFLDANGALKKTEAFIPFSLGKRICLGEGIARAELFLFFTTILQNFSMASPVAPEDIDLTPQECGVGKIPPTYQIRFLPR
Description: Inhibition of CYP2B6 (unknown origin). The class given is ADME.

In series [15] the test system is Mycobacterium tuberculosis. The experiment in a line: In vivo antimycobacterial activity against Mycobacterium tuberculosis Erdman infected mouse chronic tuberculosis infection model assessed as reduction log10 CFU at 10 to 100 mg/kg for 4 weeks at 5 days/week administered after 31 days post infection relative to control. The settings on record: dose 10-100 mg/kg. The series is classed as functional.

Series [16] in a line: Plasma protein binding in rat assessed as bound fraction. The series is classed as ADME, cell-free. The settings on record: read-out: PPB (converted).
Another series has as its target Cytochrome P450 3A4 (Homo sapiens, UniProt P08684). Description: Inhibition of CYP3A4 (unknown origin). The series is classed as ADME.
The next series deals with Cytochrome P450 2D6 (Homo sapiens, UniProt P10635). The experiment in a line: Inhibition of CYP2D6 (unknown origin). The series is classed as ADME.
Chain of Cytochrome P450 2D6 (P10635 whole entry): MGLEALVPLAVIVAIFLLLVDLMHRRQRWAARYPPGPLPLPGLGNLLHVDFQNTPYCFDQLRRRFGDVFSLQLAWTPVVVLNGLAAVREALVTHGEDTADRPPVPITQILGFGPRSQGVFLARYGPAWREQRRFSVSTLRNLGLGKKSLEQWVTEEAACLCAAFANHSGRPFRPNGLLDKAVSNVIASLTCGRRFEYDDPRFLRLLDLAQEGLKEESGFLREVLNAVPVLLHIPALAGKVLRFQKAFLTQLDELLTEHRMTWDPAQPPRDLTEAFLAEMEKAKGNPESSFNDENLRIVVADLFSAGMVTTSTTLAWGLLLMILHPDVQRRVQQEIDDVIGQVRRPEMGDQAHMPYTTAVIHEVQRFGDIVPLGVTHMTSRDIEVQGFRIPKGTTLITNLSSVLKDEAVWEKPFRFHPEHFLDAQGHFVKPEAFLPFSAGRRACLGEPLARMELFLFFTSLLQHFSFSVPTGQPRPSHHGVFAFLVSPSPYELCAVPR
The nature of series [17]: Plasma protein binding in human assessed as bound fraction. The class given is ADME, cell-free. The settings on record: read-out: PPB (converted).
The nature of series [18]: Apparent permeability across apical to basolateral side in dog MDCK cells. The series is classed as ADME, cell-based, Canis lupus familiaris.
A short description of series [19]: Plasma protein binding in dog assessed as bound fraction. The series is classed as ADME, cell-free, Canis lupus familiaris. The settings on record: read-out: PPB (converted).
Series [20] can be described thus: Plasma protein binding in mouse assessed as bound fraction. The class given is ADME, cell-free. The settings on record: read-out: PPB (converted).
The next series deals with T3, Cytochrome P450 2C8 (Homo sapiens, UniProt P10632).
T3 sequence (P10632 whole entry): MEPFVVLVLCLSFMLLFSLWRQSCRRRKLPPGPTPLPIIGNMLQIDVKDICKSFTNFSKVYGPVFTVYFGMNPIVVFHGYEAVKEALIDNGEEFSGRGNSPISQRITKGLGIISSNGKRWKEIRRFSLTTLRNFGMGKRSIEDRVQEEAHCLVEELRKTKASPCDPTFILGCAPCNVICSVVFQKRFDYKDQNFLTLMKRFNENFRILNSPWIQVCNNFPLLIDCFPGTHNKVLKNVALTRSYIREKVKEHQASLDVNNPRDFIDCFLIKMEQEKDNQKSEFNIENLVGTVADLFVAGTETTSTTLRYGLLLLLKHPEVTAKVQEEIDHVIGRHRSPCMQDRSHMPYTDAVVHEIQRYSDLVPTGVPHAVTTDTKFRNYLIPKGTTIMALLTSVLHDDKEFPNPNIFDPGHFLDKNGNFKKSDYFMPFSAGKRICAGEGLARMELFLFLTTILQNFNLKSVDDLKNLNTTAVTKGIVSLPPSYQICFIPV
Description: Inhibition of CYP2C8 (unknown origin). The class given is ADME.

For series [21], the target named is Voltage-gated inwardly rectifying potassium channel KCNH2 (Homo sapiens, UniProt Q12809). The experiment in a line: Inhibition of human ERG. The class given is toxicity.
Chain of Voltage-gated inwardly rectifying potassium channel KCNH2 (Q12809 whole entry): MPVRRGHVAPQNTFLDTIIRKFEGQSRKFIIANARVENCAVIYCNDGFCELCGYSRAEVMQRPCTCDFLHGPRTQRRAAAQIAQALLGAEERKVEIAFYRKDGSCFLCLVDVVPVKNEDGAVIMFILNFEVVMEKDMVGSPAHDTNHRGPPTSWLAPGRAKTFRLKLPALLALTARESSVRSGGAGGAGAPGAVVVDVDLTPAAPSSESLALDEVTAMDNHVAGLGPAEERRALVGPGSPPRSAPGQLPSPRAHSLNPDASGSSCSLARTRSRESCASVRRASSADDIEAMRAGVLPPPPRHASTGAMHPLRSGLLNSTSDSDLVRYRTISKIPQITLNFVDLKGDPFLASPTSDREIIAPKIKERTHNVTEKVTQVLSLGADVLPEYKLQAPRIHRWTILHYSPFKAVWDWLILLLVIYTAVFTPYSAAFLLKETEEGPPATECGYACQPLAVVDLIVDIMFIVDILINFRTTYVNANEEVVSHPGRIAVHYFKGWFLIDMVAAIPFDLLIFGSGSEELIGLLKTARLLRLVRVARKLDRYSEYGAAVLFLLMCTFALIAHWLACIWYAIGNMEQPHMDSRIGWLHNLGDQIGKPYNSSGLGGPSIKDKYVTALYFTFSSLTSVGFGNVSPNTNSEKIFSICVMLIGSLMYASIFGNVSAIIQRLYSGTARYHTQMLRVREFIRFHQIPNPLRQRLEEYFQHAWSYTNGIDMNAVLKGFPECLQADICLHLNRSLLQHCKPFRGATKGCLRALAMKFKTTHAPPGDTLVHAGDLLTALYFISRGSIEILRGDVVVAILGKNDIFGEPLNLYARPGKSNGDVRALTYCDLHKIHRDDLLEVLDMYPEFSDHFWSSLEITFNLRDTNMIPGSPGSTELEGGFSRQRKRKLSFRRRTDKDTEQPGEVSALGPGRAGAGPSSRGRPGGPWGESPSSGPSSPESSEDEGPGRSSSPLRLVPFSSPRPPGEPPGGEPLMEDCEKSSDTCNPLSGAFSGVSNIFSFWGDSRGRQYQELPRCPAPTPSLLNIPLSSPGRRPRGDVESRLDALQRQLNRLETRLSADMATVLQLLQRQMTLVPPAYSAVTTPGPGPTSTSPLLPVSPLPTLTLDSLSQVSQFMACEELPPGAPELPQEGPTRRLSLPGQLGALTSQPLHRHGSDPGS
A further series deals with Cytochrome P450 2C19 (Homo sapiens, UniProt P33261). The experiment in a line: Inhibition of CYP2C19 (unknown origin). The class given is ADME.
Chain of Cytochrome P450 2C19 (P33261 whole entry): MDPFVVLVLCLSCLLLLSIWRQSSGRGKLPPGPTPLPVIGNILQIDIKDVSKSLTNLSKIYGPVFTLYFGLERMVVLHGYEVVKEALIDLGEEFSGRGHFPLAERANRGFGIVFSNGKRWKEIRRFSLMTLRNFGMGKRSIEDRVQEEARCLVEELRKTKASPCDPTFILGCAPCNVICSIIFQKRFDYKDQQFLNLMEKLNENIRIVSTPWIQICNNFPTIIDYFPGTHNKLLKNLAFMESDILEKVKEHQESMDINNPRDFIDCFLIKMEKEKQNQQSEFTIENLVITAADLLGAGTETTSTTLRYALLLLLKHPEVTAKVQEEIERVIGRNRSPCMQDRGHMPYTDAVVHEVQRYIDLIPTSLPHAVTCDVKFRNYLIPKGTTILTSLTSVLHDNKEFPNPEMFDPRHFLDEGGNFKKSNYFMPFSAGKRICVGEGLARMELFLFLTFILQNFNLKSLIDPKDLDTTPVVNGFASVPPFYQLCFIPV
The test system of series [22] is Mycobacterium tuberculosis. The experiment in a line: Antimycobacterial activity against Mycobacterium tuberculosis Erdman assessed as bacterial growth inhibition. The series is classed as functional.

Chain of Cytochrome P450 3A4 (P08684 whole entry): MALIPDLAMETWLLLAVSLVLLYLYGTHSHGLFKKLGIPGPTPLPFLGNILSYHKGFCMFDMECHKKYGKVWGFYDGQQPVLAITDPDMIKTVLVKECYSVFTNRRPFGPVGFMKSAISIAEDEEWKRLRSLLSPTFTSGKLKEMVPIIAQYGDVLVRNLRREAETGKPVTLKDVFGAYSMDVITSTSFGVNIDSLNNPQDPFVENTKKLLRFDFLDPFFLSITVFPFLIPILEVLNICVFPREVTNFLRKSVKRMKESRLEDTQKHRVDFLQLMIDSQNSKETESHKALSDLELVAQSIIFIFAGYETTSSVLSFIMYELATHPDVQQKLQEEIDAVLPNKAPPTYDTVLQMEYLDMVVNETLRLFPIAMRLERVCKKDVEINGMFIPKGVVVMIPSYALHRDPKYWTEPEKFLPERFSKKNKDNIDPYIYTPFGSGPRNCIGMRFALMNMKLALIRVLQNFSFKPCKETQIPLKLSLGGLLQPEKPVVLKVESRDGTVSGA

As to `C[C@]1(CN2CCc3nc(-c4ccc(F)cc4)ccc3C2)Cn2cc([N+](=O)[O-])nc2O1`, the half-life – broadly, the time in which the quantity being followed falls by half – in series [1] turned out to be 22 min; in [2] it was 6 min; in series [6] it was 25 min. Further, the MIC (in general, the lowest concentration that inhibits growth of the organism) in series [3] was less than 0.031 µg/mL; in [4], 4.83 µg/mL (≈ 11.8 µM). In addition, the CC50 (usually the concentration at which the toxic effect on the cells reaches its halfway point) in series [5] is more than 32 µg/mL.

`C[C@]1(CN2CCc3nc(-c4ccc(F)cc4)sc3CC2)Cn2cc([N+](=O)[O-])nc2O1`: the results for the half-life in series [1], in series [2] and in series [6] were 7 min, 8 min and 15 min, respectively. Moreover, the values for the minimum inhibitory concentration (MIC) in [3] and in series [4] were 0.03 µg/mL (≈ 0.0699 µM) and more than 8 µg/mL, respectively. For the same compound, the CC50 in [5] is more than 32 µg/mL.

`Cc1cc(F)ccc1-c1nc2c(s1)CN(C[C@@]1(C)Cn3cc([N+](=O)[O-])nc3O1)C2`: in [7], the Cmax (as a rule, the highest concentration seen after dosing) is 201 ng/mL. This compound yielded an AUClast in series [8] (mouse) of 1441 ng·h/mL. In addition, in series [9], the half-life is 124 min. For the same compound, the Vd (as a rule, the apparent volume that relates the amount in the body to the concentration in plasma or blood) in series [10] turned out to be 3.38 L/kg. Further, in series [3], the MIC was less than 0.013 µg/mL. In [11] (mouse, po, 5 mg/kg), this compound gave an F of 20.5%. Also, the CC50 in series [5] was more than 32 µg/mL.

As for `C[C@]1(CN2Cc3nc(-c4ncc(F)cc4F)sc3C2)Cn2cc([N+](=O)[O-])nc2O1`, the clearance (commonly the rate of elimination divided by the concentration) in series [12] turned out to be 13.8 mL/min/kg. The same compound yielded a Cmax in [7] of 1010 ng/mL. Besides, the AUC(0-t) (as a rule, exposure summed from dosing to a finite time, without extrapolation to infinity) in [8] (CD-1, mouse) worked out at 4990 ng·h/mL. Besides, the half-life in [9] was 84 min. The compound further came in with a Vd in series [10] of 1.57 L/kg. Also, the MIC in series [3] stood at 0.06 µg/mL (≈ 0.143 µM). The bioavailability (as a rule, the share of a dose that reaches the circulation, judged against a reference dose that is usually intravenous) in series [11] (CD-1, mouse) worked out at 57.9%. The half-maximal cytotoxic concentration (CC50) in [5] was more than 32 µg/mL.

On to `C[C@]1(COc2ccc(N3CCC(Oc4ccc(OC(F)(F)F)cc4)CC3)cc2)Cn2cc([N+](=O)[O-])nc2O1`, for which the IC50 against Cytochrome P450 1A2, against Cytochrome P450 2C9, against Cytochrome P450 2B6, against Cytochrome P450 3A4, on Cytochrome P450 2D6 and against Cytochrome P450 2C8 was more than 100 µM in each case. In addition, the IC50 (usually the concentration that gives 50% inhibition) in [21] is more than 30 µM; against Cytochrome P450 2C19 it was more than 100 µM. For the same compound, the values for the Activity entry in series [13] and in series [15] were “Dde” and 1 log10CFU, respectively. Further, the figures for the half-life in series [1], in series [2] and in series [6] were more than 145 min, more than 145 min and 84 min, respectively. For the same compound, the MIC50 (as a rule, the lowest concentration that inhibits either 50% of growth or 50% of the strains tested, depending on the study) in series [14] was found to be 0.002 µg/mL (≈ 0.00374 µM). Moreover, in [14], the MIC90 – broadly, the lowest concentration that inhibits either 90% of growth or 90% of the strains tested, depending on the study – turned out to be 0.004 µg/mL (≈ 0.00748 µM). Besides, the fraction unbound was 0.004 in [16], 0.005 in series [17], 0.005 in series [19] and 0.005 in series [20]. The MIC was 0.006 µg/mL (≈ 0.0112 µM) in series [3], 0.61 µg/mL (≈ 1.14 µM) in series [4] and 0.015 µg/mL (≈ 0.0281 µM) in series [22]. For the same compound, the Papp A→B (commonly how fast a substance crosses the layer from the apical side) in series [18] amounted to 0.09 ×10⁻⁶ cm/s. Moreover, the CC50 in series [5] was more than 32 µg/mL.
